Laboratory results published in patent US10227331B2 (priority 2015, dated 2019).

Columns and labels:
[1] = system: P. aeruginosa expressing IMP-1, efflux− (MB9799); assay: Efflux: concentration of MBL inhibitor which restores susceptibility to imipenem; assay type: cell-based, Pseudomonas aeruginosa; conditions: imipenem at 2 μg/mL, in the presence of a class A, C, D serine β-lactamase inhibitor closely related to relebactam
Excerpt: (§1) The strain background is Pseudomonas aeruginosa PAO1.

[2] = system: Escherichia coli expressing NDM-1 (CLB30005, CLB30016); assay type: cell-based; conditions: with imipenem 1 μg/ml, 95% inhibition of bacterial growth; for Escherichia coli MITC95: NDM-1 (CLB30016)
Outline: (§2)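 Clinical strains grown overnight on blood agar, then diluted 1:100 in 1.1× CAMHB and exposed to test compound with imipenem at 1 μg/ml. Incubation was 22–24 h at 35° C; growth was read by absorbance to find the compound concentration restoring imipenem susceptibility.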

[3] = system: Serratia marcescens expressing IMP-1 (CL5741); assay type: cell-based; conditions: with imipenem 1 μg/ml, 95% inhibition of bacterial growth; for Serratia marcescens MITC95: IMP-1 (CL5741)
Outline: as §2

[4] = system: Klebsiella pneumoniae expressing VIM-1 (IHMA599644); assay type: cell-based; conditions: with imipenem 1 μg/ml, 95% inhibition of bacterial growth; for Klebsiella pneumoniae MITC95: VIM-1 (IHMA599644)
Outline: as §2

[5] = molecular target: VIM-1 (Pseudomonas aeruginosa (strain ATCC 15692 / DSM 22644 / CIP 104116 / JCM 14847 / LMG 12228 / 1C / PRS 101 / PAO1), UniProt A0A0F7KYQ8); assay: biochemical; conditions: CCF2-FA substrate, 2 hours at 25° C
Outline: (§3)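 Class B activity is measured in the presence of compound by fluorescence with CCF2-FA after a 2-hour incubation at 25° C. IC50 is taken from a 4-parameter fit of semi-logarithmic dose-response data.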

[6] = system: P. aeruginosa expressing IMP-1, efflux+ (MB9798); assay type: cell-based, Pseudomonas aeruginosa; conditions: for P. aeruginosa expressing IMP-1, efflux+ (MB9798) MITC95: imipenem at 2 μg/mL, in the presence of a class A, C, D serine β-lactamase inhibitor closely related to relebactam; for Efflux ratio: ratio MITC95 PA_9798/MITC95 PA_9799
Excerpt: as §1

[7] = molecular target: NDM-1 (Klebsiella pneumoniae, UniProt C7C422); assay: biochemical; assay type: biochemical; conditions: CCF2-FA substrate, 2 hours at 25° C; read-out: NDM-1 IC50
Chain of NDM-1 (C7C422 whole entry, looked up, species assumed): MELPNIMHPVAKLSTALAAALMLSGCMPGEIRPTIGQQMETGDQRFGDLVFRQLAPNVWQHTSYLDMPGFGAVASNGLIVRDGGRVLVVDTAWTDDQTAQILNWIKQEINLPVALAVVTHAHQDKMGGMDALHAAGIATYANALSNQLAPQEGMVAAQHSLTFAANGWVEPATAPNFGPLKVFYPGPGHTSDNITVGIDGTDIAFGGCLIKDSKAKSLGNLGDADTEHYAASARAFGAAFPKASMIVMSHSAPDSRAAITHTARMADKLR
Outline: as §3

[8] = molecular target: IMP-1 (Serratia marcescens, UniProt P52699); assay: biochemical; assay type: biochemical; conditions: CCF2-FA substrate, 2 hours at 25° C; read-out: IMP-1 IC50
Chain of IMP-1 (P52699 whole entry, looked up, species assumed): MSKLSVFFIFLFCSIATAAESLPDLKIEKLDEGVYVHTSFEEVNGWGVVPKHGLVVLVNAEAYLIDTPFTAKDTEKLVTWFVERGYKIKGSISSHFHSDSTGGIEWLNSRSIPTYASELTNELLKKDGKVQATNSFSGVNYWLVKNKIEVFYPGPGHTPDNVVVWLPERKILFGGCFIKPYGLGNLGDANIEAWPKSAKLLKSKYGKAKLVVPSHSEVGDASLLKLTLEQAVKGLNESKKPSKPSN
Outline: as §3

Structure (SMILES)	P. aeruginosa expressing IMP-1, efflux− (MB9799) MITC95 [1]	Escherichia coli expressing NDM-1 (CLB30016) MITC95 [2]	Serratia marcescens expressing IMP-1 (CL5741) MITC95 [3]	Klebsiella pneumoniae expressing VIM-1 (IHMA599644) MITC95 [4]	IC50 [5]	P. aeruginosa expressing IMP-1, efflux+ (MB9798) MITC95 [6]	Efflux ratio [6]	IC50 [7]	IC50 [8]	Escherichia coli MITC95 [2]	Serratia marcescens MITC95 [3]	Klebsiella pneumoniae MITC95 [4]
Cn1c(N)nc2c(-c3ccc(S(=O)(=O)C4CNC4)c(S(N)(=O)=O)c3-c3nn[nH]n3)cccc21 [Example 22, 3-(2-amino-1-methyl-1H-benzo[d]imidazol-4-yl)-6-(azetidin-3-ylsulfonyl)-2-(2H-tetrazol-5-yl)benzenesulfonamide]	0.7813 µM	0.3906 µM	0.7813 µM	1.563 µM	0.213 nM	1.563 µM	2.00	0.164 nM	0.432 nM	–	–	–
NCCS(=O)(=O)c1ccc(-c2cccc3[nH]c(C(F)(F)F)nc23)c(-c2nn[nH]n2)c1S(N)(=O)=O [Example 308, 6-((2-aminoethyl)sulfonyl)-2-(2H-tetrazol-5-yl)-3-(2-(trifluoromethyl)-1H-benzo[d]imidazol-4-yl)benzenesulfonamide]	1.563 µM	–	–	–	0.219 nM	6.25 µM	4.00	0.17 nM	0.56 nM	3.125 µM	3.125 µM	3.125 µM
Nc1nc2cccc(-c3ccc(S(=O)(=O)C4CNC4)c(S(N)(=O)=O)c3-c3nn[nH]n3)n2n1 [Example 214, 3-(2-amino-[1,2,4]triazolo[1,5-a]pyridin-5-yl)-6-(azetidin-3-ylsulfonyl)-2-(2H-tetrazol-5-yl)benzenesulfonamide]	1.563 µM	3.125 µM	3.125 µM	6.25 µM	0.221 nM	3.125 µM	2.00	0.139 nM	3.32 nM	–	–	–
COc1ccc(Cc2cc3c(-c4ccc(S(=O)(=O)C5CNC5)c(S(N)(=O)=O)c4-c4nnn[nH]4)cccc3n2C)cc1 [Example 230, 6-(azetidin-3-ylsulfonyl)-3-(2-(4-methoxybenzyl)-1-methyl-1H-indol-4-yl)-2-(1H-tetrazol-5-yl)benzenesulfonamide]	3.125 µM	6.25 µM	6.25 µM	25 µM	0.356 nM	100 µM	32.00	0.11 nM	0.436 nM	–	–	–
C[C@@H](CN)S(=O)(=O)c1ccc(-c2cccc3sc(N)nc23)c(-c2nn[nH]n2)c1S(N)(=O)=O [Example 286, 3-(2-aminobenzo[d]thiazol-4-yl)-6-((S)-1-aminopropan-2-ylsulfonyl)-2-(2H-tetrazol-5-yl)benzenesulfonamide]	0.7813 µM	–	–	–	0.265 nM	1.563 µM	2.00	0.0934 nM	0.323 nM	0.7813 µM	0.7813 µM	1.563 µM
NC[C@@H](O)CS(=O)(=O)c1ccc(-c2ccc(N)nc2)c(-c2nn[nH]n2)c1S(N)(=O)=O [Example 364, (R)-6-((3-amino-2-hydroxypropyl)sulfonyl)-3-(6-aminopyridin-3-yl)-2-(2H-tetrazol-5-yl) benzenesulfonamide]	0.7813 µM	–	–	–	0.875 nM	0.7813 µM	1.00	0.795 nM	0.486 nM	0.3418 µM	0.9766 µM	1.563 µM
Nc1nc2c(-c3ccc(S(=O)(=O)C4CNC4)c(S(N)(=O)=O)c3-c3nn[nH]n3)ccc(C(=O)O)c2s1 [Example 38, 2-amino-4-(4-(azetidin-3-ylsulfonyl)-3-sulfamoyl-2-(2H-tetrazol-5-yl)phenyl)benzo[d]thiazole-7-carboxylic Acid]	6.25 µM	31.25 µM	12.5 µM	25 µM	0.341 nM	9.375 µM	1.50	0.0286 nM	0.126 nM	–	–	–
Nc1ccc(-c2ccc(S(=O)(=O)C3CNC3)c(S(N)(=O)=O)c2-c2nn[nH]n2)cn1 [Example 25, 3-(6-aminopyridin-3-yl)-6-(azetidin-3-ylsulfonyl)-2-(2H-tetrazol-5-yl)benzenesulfonamide]	1.058 µM	0.5156 µM	0.6719 µM	2.135 µM	0.441 nM	2.302 µM	2.18	0.532 nM	0.862 nM	–	–	–
Nc1nc2c(-c3ccc(S(=O)(=O)[C@H]4CCNC4)c(S(N)(=O)=O)c3-c3nn[nH]n3)cccc2s1 [Example 184, 3-(2-aminobenzo[d]thiazol-4-yl)-6-((S)-pyrrolidin-3-ylsulfonyl)-2-(2H-tetrazol-5-yl)benzenesulfonamide]	0.7813 µM	0.7813 µM	0.7813 µM	1.563 µM	0.262 nM	0.7813 µM	1.00	0.0925 nM	0.243 nM	–	–	–
NCCS(=O)(=O)c1ccc(-c2ccc3[nH]nc(C(F)(F)F)c3c2)c(-c2nnn[nH]2)c1S(N)(=O)=O.O=C(O)C(F)(F)F [Example 163, 2-((2-sulfamoyl-3-(1H-tetrazol-5-yl)-4-(3-(trifluoromethyl)-1H-indazol-5-yl)phenyl)sulfonyl)ethanaminium 2,2,2-trifluoroacetate]	0.7813 µM	1.563 µM	3.125 µM	3.125 µM	0.12 nM	100 µM	127.99	0.98 nM	1.22 nM	–	–	–
Nc1cc2cccc(-c3ccc(S(=O)(=O)C4CNC4)c(S(N)(=O)=O)c3-c3nn[nH]n3)c2cn1 [Example 35, 3-(3-aminoisoquinolin-8-yl)-6-(azetidin-3-ylsulfonyl)-2-(2H-tetrazol-5-yl)benzenesulfonamide]	1.563 µM	1.563 µM	1.563 µM	6.25 µM	0.243 nM	1.563 µM	1.00	0.0695 nM	0.503 nM	–	–	–
NCCS(=O)(=O)c1ccc(-c2cccc3[nH]c(CN)nc23)c(-c2nn[nH]n2)c1S(N)(=O)=O [Example 305, 6-((2-aminoethyl)sulfonyl)-3-(2-(aminomethyl)-1H-benzo[d]imidazol-4-yl)-2-(2H-tetrazol-5-yl)benzenesulfonamide]	0.7813 µM	–	–	–	0.493 nM	1.563 µM	2.00	0.643 nM	1.91 nM	1.563 µM	0.7813 µM	1.563 µM
COC(=O)CNC(=O)c1nc2c(-c3ccc(S(=O)(=O)C4CNC4)c(S(N)(=O)=O)c3-c3nn[nH]n3)cccc2[nH]1 [Example 256, Methyl (4-(4-(azetidin-3-ylsulfonyl)-3-sulfamoyl-2-(2H-tetrazol-5-yl)phenyl)-1H-benzo[d]imidazole-2-carbonyl)glycinate]	6.25 µM	–	–	–	0.35 nM	6.25 µM	1.00	0.108 nM	0.999 nM	6.25 µM	6.25 µM	12.5 µM
